Laboratory results as given in PubChem BioAssay AID1259411 (Chemical Carcinogenesis Research Information System (CCRIS), 2018).
Activity calls are given as the source filed them. No rule for the calls is given here.

Tested on: rodent carcinogenicity bioassays, tumor incidence
Experiment: CCRIS carcinogenicity studies
Summary of the method: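 Archive of carcinogenicity, mutagenicity, tumor promotion and tumor inhibition results drawn from journals, NCI reports and other sources, expert-reviewed; covers 1985-2011 and is no longer updated.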

## ClCCl
Species: HAMSTER, Strain/Sex: SYRIAN/FEMALE, Route: INHALATION, Dose: 0, 500, 1500, 3500 PPM IN AIR 6H/D 5D/WK FOR 104 WK (STUDY DURATION: 2 YR), Dose: 0, 500, 1500, 3500 PPM IN AIR 6H/D 5D/WK FOR 104 WK (STUDY DURATION: 2 YR)
  carcinogen call: inactive; negative
Species: HAMSTER, Strain/Sex: SYRIAN/MALE, Route: INHALATION, Dose: 0, 500, 1500, 3500 PPM IN AIR 6H/D 5D/WK FOR 104 WK (STUDY DURATION: 2 YR), Dose: 0, 500, 1500, 3500 PPM IN AIR 6H/D 5D/WK FOR 104 WK (STUDY DURATION: 2 YR)
  carcinogen call: inactive; negative
Species: MOUSE, Strain/Sex: B6C3F1/FEMALE, Route: INHALATION, Dose: 0, 2000, 4000 PPM 6 HR/D, 5 D/WK FOR 102 WK, Dose: 0, 2000, 4000 PPM 6 HR/D, 5 D/WK FOR 102 WK, Tumor Site: Type of Lesion: LUNG: ALVEOLAR/BRONCHIOLAR ADENOMA, ALVEOLAR/BRONCHIOLAR CARCINOMA, LIVER: HEPATOCELLULAR ADENOMA, HEPATOCELLULAR CARCIN
  carcinogen call: active; positive
Species: MOUSE, Strain/Sex: B6C3F1/FEMALE, Route: INHALATION, Dose: 0, 2000 PPM 6 HR/D 5 D/WK FOR 26 WK FOLLOWED BY CHAMBER AIR EXPOSURE FOR 78 WK (STUDY DURATION: 104 WK), Tumor Site: Type of Lesion: LUNG: ADENOMA OR CARCINOMA
  carcinogen call: active; positive
Species: MOUSE, Strain/Sex: B6C3F1/FEMALE, Route: INHALATION, Dose: 0, 2000 PPM 6 HR/D 5 D/WK FOR 26 WK FOLLOWING A 78 WK EXPOSURE TO CHAMBER AIR (STUDY DURATION: 104 WK)
  carcinogen call: inactive; negative
Species: MOUSE, Strain/Sex: B6C3F1/FEMALE, Route: INHALATION, Dose: 0, 2000 PPM 6 HR/D 5 D/WK FOR 52 WK FOLLOWED BY CHAMBER AIR EXPOSURE FOR 52 WK (STUDY DURATION: 104 WK), Tumor Site: Type of Lesion: LUNG: ADENOMA OR CARCINOMA, LIVER: ADENOMA OR CARCINOMA
  carcinogen call: active; positive
Species: MOUSE, Strain/Sex: B6C3F1/FEMALE, Route: INHALATION, Dose: 0, 2000 PPM 6 HR/D 5 D/WK FOR 52 WK FOLLOWING A 52 WK EXPOSURE TO CHAMBER AIR (STUDY DURATION: 104 WK)
  carcinogen call: inactive; negative
Species: MOUSE, Strain/Sex: B6C3F1/FEMALE, Route: INHALATION, Dose: 0, 2000 PPM 6 HR/D 5 D/WK FOR 78 WK FOLLOWED BY CHAMBER AIR EXPOSURE FOR 26 WK (STUDY DURATION: 104 WK), Tumor Site: Type of Lesion: LUNG: ADENOMA OR CARCINOMA, LIVER: ADENOMA OR CARCINOMA
  carcinogen call: active; positive
Species: MOUSE, Strain/Sex: B6C3F1/FEMALE, Route: INHALATION, Dose: 0, 2000 PPM 6 HR/D 5 D/WK FOR 78 WK FOLLOWING A 26 WK EXPOSURE TO CHAMBER AIR (STUDY DURATION: 104 WK), Tumor Site: Type of Lesion: LUNG: ADENOMA OR CARCINOMA, LIVER: ADENOMA OR CARCINOMA
  carcinogen call: active; positive
Species: MOUSE, Strain/Sex: B6C3F1/FEMALE, Route: INHALATION, Dose: 0, 2000 PPM 6 HR/D 5 D/WK FOR 104 WK (STUDY DURATION: 104 WK), Tumor Site: Type of Lesion: LIVER: ADENOMA, CARCINOMA, LUNG: ADENOMA, CARCINOMA
  carcinogen call: active; positive
Species: MOUSE, Strain/Sex: B6C3F1/FEMALE, Route: INHALATION, Dose: 0, 2000 PPM 6 HR/D 5 D/WK FOR 104 WK (STUDY DURATION: 104 WK), Tumor Site: Type of Lesion: LUNG: ADENOMA OR CARCINOMA, LIVER: ADENOMA OR CARCINOMA
  carcinogen call: active; positive
Species: MOUSE, Strain/Sex: B6C3F1/MALE, Route: INHALATION, Dose: 0, 2000, 4000 PPM 6 HR/D, 5 D/WK FOR 102 WK, Dose: 0, 2000, 4000 PPM 6 HR/D, 5 D/WK FOR 102 WK, Tumor Site: Type of Lesion: LUNG: ALVEOLAR/BRONCHIOLAR ADENOMA, ALVEOLAR/BRONCHIOLAR CARCINOMA, LIVER: HEPATOCELLULAR ADENOMA, HEPATOCELLULAR CARCIN
  carcinogen call: active; positive
Species: MOUSE, Strain/Sex: SWISS/FEMALE, Route: GAVAGE, Dose: 0, 100, 500 MG/KG IN OLIVE OIL 1/D 5 D/WK FOR 64 WK (STUDY DURATION: LIFETIME), Dose: 0, 100, 500 MG/KG IN OLIVE OIL 1/D 5 D/WK FOR 64 WK (STUDY DURATION: LIFETIME)
  carcinogen call: inactive; negative
Species: RAT, Strain/Sex: F344/FEMALE, Route: INHALATION, Dose: 0, 1000, 2000, 4000 PPM 6 HR/D, 5 D/WK FOR 102 WK, Dose: 0, 1000, 2000, 4000 PPM 6 HR/D, 5 D/WK FOR 102 WK, Tumor Site: Type of Lesion: MAMMARY GLAND: FIBROADENOMA, ADENOMA OR FIBROADENOMA, HEMATOPOIETIC SYSTEM (LEUKEMIA): MONONUCLEAR CELL LEUKEMIA
  carcinogen call: active; positive
Species: RAT, Strain/Sex: F344/MALE, Route: INHALATION, Dose: 0, 1000, 2000, 4000 PPM 6 HR/D, 5 D/WK FOR 102 WK, Dose: 0, 1000, 2000, 4000 PPM 6 HR/D, 5 D/WK FOR 102 WK, Tumor Site: Type of Lesion: MAMMARY GLAND: FIBROADENOMA, ADENOMA OR FIBROADENOMA, TUNICA VAGINALIS: MESOTHELIOMA, MULTIPLE SITES: MESOTHELIOMA, Tumor Site: Type of Lesion: MAMMARY GLAND: FIBROADENOMA, ADENOMA OR FIBROADENOMA, TUNICA VAGINALIS: MESOTHELIOMA, MULTIPLE SITES: MESOTHELIOMA
  carcinogen call: active; positive
Species: RAT, Strain/Sex: SPRAGUE-DAWLEY/FEMALE, Route: GAVAGE, Dose: 0, 100, 500 MG/KG IN OLIVE OIL 1/D 5 D/WK FOR 64 WK (STUDY DURATION: LIFETIME), Dose: 0, 100, 500 MG/KG IN OLIVE OIL 1/D 5 D/WK FOR 64 WK (STUDY DURATION: LIFETIME)
  carcinogen call: inactive; negative
Species: RAT, Strain/Sex: SPRAGUE-DAWLEY/FEMALE, Route: INHALATION, Dose: 0, 100 PPM 4 HR/D 5 D/WK FOR 7 WK THEN 7 HR/D 5 D/WK FOR 97 WK BEGINNING WHEN RATS WERE 12 DAY OLD EMBRYOS (STUDY DURATI
  carcinogen call: inactive; negative
Species: RAT, Strain/Sex: SPRAGUE-DAWLEY/FEMALE, Route: INHALATION, Dose: 0, 500, 1500, 3500 PPM IN AIR 6H/D 5D/WK FOR 104 WK (STUDY DURATION: 2 YR), Dose: 0, 500, 1500, 3500 PPM IN AIR 6H/D 5D/WK FOR 104 WK (STUDY DURATION: 2 YR)
  carcinogen call: inactive; negative
Species: RAT, Strain/Sex: SPRAGUE-DAWLEY/MALE, Route: GAVAGE, Dose: 0, 100, 500 MG/KG IN OLIVE OIL 1/D 5 D/WK FOR 64 WK (STUDY DURATION: LIFETIME), Dose: 0, 100, 500 MG/KG IN OLIVE OIL 1/D 5 D/WK FOR 64 WK (STUDY DURATION: LIFETIME)
  carcinogen call: inactive; negative
Species: RAT, Strain/Sex: SPRAGUE-DAWLEY/MALE, Route: INHALATION, Dose: 0, 100 PPM 4 HR/D 5 D/WK FOR 7 WK THEN 7 HR/D 5 D/WK FOR 97 WK BEGINNING WHEN RATS WERE 12 DAY OLD EMBRYOS (STUDY DURATI
  carcinogen call: inactive; negative
Species: RAT, Strain/Sex: SPRAGUE-DAWLEY/MALE, Route: INHALATION, Dose: 0, 500, 1500, 3500 PPM IN AIR 6H/D 5D/WK FOR 104 WK (STUDY DURATION: 2 YR), Dose: 0, 500, 1500, 3500 PPM IN AIR 6H/D 5D/WK FOR 104 WK (STUDY DURATION: 2 YR), Tumor Site: Type of Lesion: SALIVARY GLAND: SARCOMA
  carcinogen call: active; positive

## Oc1ccccc1
Species: MOUSE, Strain/Sex: B6C3F1/FEMALE, Route: ORAL, Dose: 0, 2500, 5000 PPM IN DIET, Dose: 0, 2500, 5000 PPM IN DIET
  carcinogen call: inactive; negative
Species: MOUSE, Strain/Sex: B6C3F1/MALE, Route: ORAL, Dose: 0, 2500, 5000 PPM IN DIET, Dose: 0, 2500, 5000 PPM IN DIET
  carcinogen call: inactive; negative
Species: RAT, Strain/Sex: F344/FEMALE, Route: ORAL, Dose: 0, 2500, 5000 PPM IN DIET, Dose: 0, 2500, 5000 PPM IN DIET
  carcinogen call: inactive; negative
Species: RAT, Strain/Sex: F344/MALE, Route: ORAL, Dose: 0, 2500, 5000 PPM IN DIET, Dose: 0, 2500, 5000 PPM IN DIET
  carcinogen call: inactive; negative

## CC(C)CN(N=O)C(N)=O
Species: RAT, Strain/Sex: DONRYU/FEMALE, Route: ORAL, Dose: 100, 200, 400 PPM IN DRINKING WATER, Dose: 100, 200, 400 PPM IN DRINKING WATER, Tumor Site: Type of Lesion: DUODENUM: BENIGN HEMANGIOENDOTHELIOMA, MALIGNANT HEMANGIOENDOTHELIOMA
  carcinogen call: active; positive

## CC(C)CCC[C@@H](C)[C@H]1CC[C@H]2[C@@H]3C[C@H]4O[C@]45C[C@@H](O)CC[C@]5(C)[C@H]3CC[C@]12C
Species: RAT, Strain/Sex: STRAIN-CD/FEMALE, Route: INJECTION, Dose: 0, 12.3 UMOL (TOTAL DOSE) 1/6 INJECTED UNDER EACH OF 3 THORACIC AND 3 INGUINAL NIPPLES ONCE (STUDY DURATION: 44 WK)
  carcinogen call: inactive; negative
